Results: patent USRE46698E1, “Use of cyclohexanol derivatives as antimicrobial active compounds” (MERCK PATENT GMBH, priority 2011, dated 2018)

Key:
Experiment in all cases: Antimicrobial action, microbe count (Example 6)
Type in all cases: cell-based
Aspergillus brasiliensis = details: conc. 0.5%, H2O (12% of ethanol), count t0 2.0 × 10^4
Method: (§1) For sample preparation, the substances being investigated are each dissolved or homogeneously dispersed in an amount of 1.0% in a water/ethanol mixture (12% of ethanol) and subsequently diluted with bacteria suspension in the ratio 1 to 2. P. acnes (ATCC 6919) is pre-incubated under anaerobic conditions for 48 h at 35° C. on RMC agar (Merck 1.05410). A bacteria suspension having an optical density (OD) of about 1.5 is subsequently prepared in RMC broth (Merck 1.05411, double-concentrated). 150 μl of freshly prepared sample and 100 μl of paraffin are added to 150 μl of bacteria suspension per well. The optical density is determined over the course of time at 37° C. using a Bioscreen C™ analyser compared with the negative control (=vehicle without test substance). Compared with the negative control, reduced optical densities confirm growth-inhibiting substance actions.
(§2) For sample preparation, the substances being investigated are each dissolved or homogeneously dispersed in an amount of 1.0% in a water/ethanol mixture (12% of ethanol) (=sample). A bacteria suspension of S. epidermidis (ATCC 12228) having an optical density of 1.0 in CASO broth (Merck 1.05459) is diluted 1:10000 with CASO broth. 500 μl of sample are added to 500 μl of bacteria suspension, and the mixture is incubated at 35° C. for 24 h. After the incubation, the test batches are diluted to −6 in 10 unit steps, and 0.1 ml of each is plated-out on CASO agar (Merck 1.05458) and incubated at 35° C. for 24 h.
(§3) In order to determine the initial microbe count, 0.1 ml of the bacteria suspension used are plated-out on CASO agar (Merck 1.05458) and incubated at 35° C. for 24 h.
(§4) The colonies are subsequently counted, and the microbe count per ml is determined compared with the negative control (12% of ethanol in water).
(§5) The procedure corresponds to that described in Examples 4 and 5 using the microorganisms shown below. The concentrations indicated are the final use concentrations. In order to prepare the stock solution, double the final concentration were prepared in the solvent indicated. This was subsequently diluted 1:2 with the corresponding microbe suspension. In the case of Aspergillus brasiliensis, the microbe count determination was exceptionally carried out after 48 h.

Propionibacterium acnes = details: conc. 0.5%, H2O (12% of ethanol), count t0 2.0 × 10^4
Method: as §1, §2, §3, §4, §5

[1] = tested on: Staphylococcus epidermidis; details: conc. 0.5%, H2O (12% of ethanol), count t0 3.4 × 10^4
Method: as §1, §2, §3, §4, §5

For `CCOC(=O)C1CCCCC1O` (stereo not drawn) [Substance I-2], the Δlog (Aspergillus brasiliensis; count after 48 h) was −0.30, the “Microbe count t24 h” value (Aspergillus brasiliensis; count carried out after 48 h) was 1.0 × 10^4 and the “Microbe count t24 h” value (Propionibacterium acnes) was 1.2 × 10^4. For the same molecule, the Δlog (Propionibacterium acnes; t24 h) was −0.22, the “Microbe count t24 h” value [1] was 2.0 × 10^4 and the Δlog ([1]; t24 h) was −0.23.
